These results are taken from the supplement of paper PMC12420376.

Molecules are shown by their SMILES.

For one assay, the system named is KURAMOCHI
Description: drug sensitivity score (DSS2) on cancer cell count; higher = more sensitive; extreme values may be limits of the assay. The note with it: 72 h. The method in brief: (§1)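 Ovarian cancer cells grown alone or 1:1 with lung or skin fibroblasts in direct co-culture were treated for 72 h on 384-well plates carrying 528 approved and investigational compounds at 5 concentrations. Fixed cells were stained for CK8/18 with Hoechst and imaged to count cancer cells. A drug sensitivity score was then derived in Breeze from logistic curve fits.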

The subject of the next assay is OVCAR8. Described as above. The note with it: 72 h. The method in brief:
as §1

The mark [1] stands for this setting: co-cultured fibroblast: BJHTERT.
The mark [2] stands for this setting: co-cultured fibroblast: none (monoculture).

On to `C=CC(=O)Nc1cccc(Oc2nc(Nc3ccc(N4CCN(C)CC4)cc3)nc3ccsc23)c1` [Olmutinib], for which the drug sensitivity score in the assay on KURAMOCHI (setting [1]) worked out at 2.1 DSS; with KURAMOCHI (co-cultured fibroblast: WI38) it was 2.7 DSS; with KURAMOCHI (setting [2]) it was 0 DSS; in the assay with OVCAR8 (setting [1]), 0 DSS; with OVCAR8 (co-cultured fibroblast: WI38) it was 0 DSS; with OVCAR8 (setting [2]), 0 DSS.
Take `C[C@@H](C(=O)O)c1ccc(-c2ccccc2)c(F)c1` [Tarenflurbil]: the drug sensitivity score in the assay with KURAMOCHI (setting [1]) turned out to be 0 DSS; in the assay on KURAMOCHI (co-cultured fibroblast: WI38), 0 DSS; in the assay on KURAMOCHI (setting [2]) it was 0 DSS; in the assay with OVCAR8 (setting [1]), 0.7 DSS; in the assay on OVCAR8 (co-cultured fibroblast: WI38) it was 0 DSS; in the assay with OVCAR8 (setting [2]), 0 DSS.
On to `O=C(/C=C/c1cccc(S(=O)(=O)Nc2ccccc2)c1)NO` [Belinostat], for which the drug sensitivity score was found to be 15.1 DSS in the assay with KURAMOCHI (setting [1]); 18.6 DSS in the assay with KURAMOCHI (co-cultured fibroblast: WI38); 27.5 DSS with KURAMOCHI (setting [2]); 17.7 DSS with OVCAR8 (setting [1]); 18.2 DSS in the assay on OVCAR8 (co-cultured fibroblast: WI38); 22.5 DSS in the assay on OVCAR8 (setting [2]).
Turning to `S=c1[nH]cnc2nc[nH]c12` [Mercaptopurine], the drug sensitivity score in the assay on KURAMOCHI (setting [1]) was 0.1 DSS; in the assay on KURAMOCHI (co-cultured fibroblast: WI38), 0.3 DSS; with KURAMOCHI (setting [2]) it was 0 DSS; with OVCAR8 (setting [1]), 0 DSS; with OVCAR8 (co-cultured fibroblast: WI38) it was 0 DSS; in the assay with OVCAR8 (setting [2]), 5.4 DSS.
As for `CNC(=O)c1ccc(N2C(=S)N(c3cnc(C#N)c(C(F)(F)F)c3)C(=O)C23CCC3)cc1F` [Apalutamide], the drug sensitivity score in the assay with KURAMOCHI (setting [1]), with KURAMOCHI (co-cultured fibroblast: WI38), in the assay on KURAMOCHI (setting [2]), in the assay with OVCAR8 (setting [1]), with OVCAR8 (co-cultured fibroblast: WI38) and with OVCAR8 (setting [2]) was 0 DSS throughout.
As for `C/C=C1\NC(=O)[C@H]2CSSCC/C=C/[C@H](CC(=O)N[C@H](C(C)C)C(=O)N2)OC(=O)[C@H](C(C)C)NC1=O` [Romidepsin], the drug sensitivity score in the assay on KURAMOCHI (setting [1]) stood at 28 DSS; in the assay on KURAMOCHI (co-cultured fibroblast: WI38), 30 DSS; in the assay with KURAMOCHI (setting [2]), 32.7 DSS; in the assay with OVCAR8 (setting [1]), 29.2 DSS; in the assay with OVCAR8 (co-cultured fibroblast: WI38), 26.5 DSS; in the assay on OVCAR8 (setting [2]), 30.4 DSS.
As to `CN1CCN(c2cc(C(=O)Nc3ccc4c(c3)-c3c(c(C(N)=O)nn3-c3ccc(F)cc3)CC4)c(Cl)cn2)CC1` [PHA 408], the drug sensitivity score with KURAMOCHI (setting [1]) came out at 5.8 DSS; with KURAMOCHI (co-cultured fibroblast: WI38) it was 1.9 DSS; in the assay on KURAMOCHI (setting [2]) it was 1.6 DSS; with OVCAR8 (setting [1]), 0.5 DSS; in the assay on OVCAR8 (co-cultured fibroblast: WI38), 8.6 DSS; in the assay with OVCAR8 (setting [2]) it was 4.8 DSS.
Take `CC(O)(CS(=O)(=O)c1ccc(F)cc1)C(=O)Nc1ccc(C#N)c(C(F)(F)F)c1` (stereo not given) [Bicalutamide]: the drug sensitivity score in the assay with KURAMOCHI (setting [1]) amounted to 0 DSS; in the assay on KURAMOCHI (co-cultured fibroblast: WI38) it was 0 DSS; with KURAMOCHI (setting [2]) it was 0 DSS; in the assay on OVCAR8 (setting [1]) it was 0.1 DSS; with OVCAR8 (co-cultured fibroblast: WI38), 0 DSS; in the assay with OVCAR8 (setting [2]), 0 DSS.
With `CN(C)c1cc2c(cc1Sc1nc3c(N)nccc3n1CCNCC(C)(C)C)OCO2` [CUDC-305], the drug sensitivity score in the assay on KURAMOCHI (setting [1]) was 12 DSS; with KURAMOCHI (co-cultured fibroblast: WI38) it was 14.9 DSS; in the assay on KURAMOCHI (setting [2]), 18.4 DSS; with OVCAR8 (setting [1]), 16.5 DSS; in the assay with OVCAR8 (co-cultured fibroblast: WI38), 16.7 DSS; with OVCAR8 (setting [2]), 23.2 DSS.
On to `CO[C@@]12[C@H](COC(N)=O)C3=C(C(=O)C(C)=C(N)C3=O)N1C[C@@H]1N[C@@H]12` [Mitomycin C], for which the drug sensitivity score was found to be 0 DSS in the assay on KURAMOCHI (setting [1]); 0 DSS in the assay with KURAMOCHI (co-cultured fibroblast: WI38); 12.4 DSS in the assay on KURAMOCHI (setting [2]); 4.2 DSS in the assay with OVCAR8 (setting [1]); 0.8 DSS in the assay on OVCAR8 (co-cultured fibroblast: WI38); 3.1 DSS in the assay with OVCAR8 (setting [2]).
Turning to `C=CC(=O)Nc1cccc(Nc2nc(Nc3ccc(N4CCN(C(C)=O)CC4)cc3OC)ncc2C(F)(F)F)c1` [Rociletinib], the drug sensitivity score with KURAMOCHI (setting [1]) is 5.8 DSS; in the assay with KURAMOCHI (co-cultured fibroblast: WI38), 4.6 DSS; with KURAMOCHI (setting [2]) it was 3.7 DSS; with OVCAR8 (setting [1]), 6.7 DSS; in the assay on OVCAR8 (co-cultured fibroblast: WI38), 4.1 DSS; with OVCAR8 (setting [2]), 8.1 DSS.
For the compound `O=C(O)c1ccc2c(c1)nc(Nc1cccc(Cl)c1)c1ccncc12` [Silmitasertib], the drug sensitivity score in the assay with KURAMOCHI (setting [1]) is 4.1 DSS; in the assay on KURAMOCHI (co-cultured fibroblast: WI38) it was 3.4 DSS; with KURAMOCHI (setting [2]) it was 0.8 DSS; in the assay on OVCAR8 (setting [1]), 2 DSS; in the assay with OVCAR8 (co-cultured fibroblast: WI38), 0 DSS; in the assay with OVCAR8 (setting [2]), 3 DSS.
Take `CCOCc1nc2c(N)nc3ccccc3c2n1CC(C)(C)O` [Resiquimod]: the drug sensitivity score was 0 DSS in the assay with KURAMOCHI (setting [1]); 0 DSS with KURAMOCHI (co-cultured fibroblast: WI38); 6.7 DSS with KURAMOCHI (setting [2]); 0.3 DSS in the assay with OVCAR8 (setting [1]); 0 DSS with OVCAR8 (co-cultured fibroblast: WI38); 0 DSS with OVCAR8 (setting [2]).
As for `CC(C)(C)NC(=O)[C@H]1CC[C@H]2[C@@H]3CC[C@H]4NC(=O)C=C[C@]4(C)[C@H]3CC[C@]12C` [Finasteride], the drug sensitivity score in the assay on KURAMOCHI (setting [1]) amounted to 0 DSS; in the assay on KURAMOCHI (co-cultured fibroblast: WI38) it was 0 DSS; in the assay on KURAMOCHI (setting [2]), 0 DSS; in the assay with OVCAR8 (setting [1]), 2.1 DSS; in the assay on OVCAR8 (co-cultured fibroblast: WI38), 0 DSS; in the assay with OVCAR8 (setting [2]) it was 0 DSS.
In the case of `COc1ccc(CCc2nc3cc(-c4c(C)noc4C)ccc3n2C[C@H](C)N2CCOCC2)cc1Cl` [SGC-CBP30], the drug sensitivity score came to 5.7 DSS in the assay on KURAMOCHI (setting [1]); 1.3 DSS with KURAMOCHI (co-cultured fibroblast: WI38); 3.2 DSS with KURAMOCHI (setting [2]); 9.9 DSS with OVCAR8 (setting [1]); 1.7 DSS in the assay on OVCAR8 (co-cultured fibroblast: WI38); 4.5 DSS in the assay with OVCAR8 (setting [2]).
Turning to `NC(=O)Nc1cc(-c2cccc(F)c2)sc1C(=O)N[C@H]1CCCNC1` [AZD7762], the drug sensitivity score with KURAMOCHI (setting [1]) stood at 8.7 DSS; in the assay with KURAMOCHI (co-cultured fibroblast: WI38), 6.6 DSS; with KURAMOCHI (setting [2]), 22.4 DSS; with OVCAR8 (setting [1]) it was 7.3 DSS; in the assay with OVCAR8 (co-cultured fibroblast: WI38), 9.2 DSS; in the assay with OVCAR8 (setting [2]), 4.5 DSS.
For `CC(=O)Nc1ccc(C(=O)Nc2ccccc2N)cc1` [Tacedinaline], the drug sensitivity score with KURAMOCHI (setting [1]) is 0 DSS; in the assay on KURAMOCHI (co-cultured fibroblast: WI38), 2.6 DSS; in the assay with KURAMOCHI (setting [2]) it was 3.7 DSS; with OVCAR8 (setting [1]), 0 DSS; in the assay on OVCAR8 (co-cultured fibroblast: WI38), 0 DSS; with OVCAR8 (setting [2]), 1.8 DSS.
In the case of `O=C(CCCCCCC(=O)Nc1ccccc1)NO` [Vorinostat], the drug sensitivity score worked out at 9.5 DSS in the assay with KURAMOCHI (setting [1]); 9.7 DSS in the assay with KURAMOCHI (co-cultured fibroblast: WI38); 5.5 DSS in the assay on KURAMOCHI (setting [2]); 17.1 DSS in the assay with OVCAR8 (setting [1]); 22.8 DSS in the assay with OVCAR8 (co-cultured fibroblast: WI38); 9.4 DSS in the assay with OVCAR8 (setting [2]).
As to `C[C@@H](Oc1cc(-n2cnc3ccc(CN4CCN(C)CC4)cc32)sc1C(N)=O)c1ccccc1C(F)(F)F`, the drug sensitivity score was found to be 28 DSS in the assay on KURAMOCHI (setting [1]); 27.7 DSS in the assay on KURAMOCHI (co-cultured fibroblast: WI38); 25.3 DSS in the assay on KURAMOCHI (setting [2]); 42.4 DSS with OVCAR8 (setting [1]); 32.3 DSS in the assay on OVCAR8 (co-cultured fibroblast: WI38); 31 DSS with OVCAR8 (setting [2]).
For `CC(=O)c1cnc2ccc(-c3cc(Cl)c(O)c(Cl)c3)nc2c1N[C@H]1CC[C@H](CN(C)C)CC1` [OTS167], the drug sensitivity score in the assay on KURAMOCHI (setting [1]) amounted to 14.9 DSS; in the assay with KURAMOCHI (co-cultured fibroblast: WI38) it was 13.5 DSS; with KURAMOCHI (setting [2]), 11.7 DSS; with OVCAR8 (setting [1]), 20.6 DSS; with OVCAR8 (co-cultured fibroblast: WI38), 16.1 DSS; in the assay on OVCAR8 (setting [2]), 19.2 DSS.
